Laboratory results as given in patent US12358908B2, “Crystals, preparation method and application of a muscarinic receptor antagonist” (BEIJING SHOWBY PHARMACEUTICAL CO., LTD., priority 2020, dated 2025).

Experiments:
M2 receptor = target: T1, M2 receptor (Homo sapiens, UniProt P08172); details: selective effect on M receptor subtypes; cited from earlier work
T1 sequence (P08172 1-466): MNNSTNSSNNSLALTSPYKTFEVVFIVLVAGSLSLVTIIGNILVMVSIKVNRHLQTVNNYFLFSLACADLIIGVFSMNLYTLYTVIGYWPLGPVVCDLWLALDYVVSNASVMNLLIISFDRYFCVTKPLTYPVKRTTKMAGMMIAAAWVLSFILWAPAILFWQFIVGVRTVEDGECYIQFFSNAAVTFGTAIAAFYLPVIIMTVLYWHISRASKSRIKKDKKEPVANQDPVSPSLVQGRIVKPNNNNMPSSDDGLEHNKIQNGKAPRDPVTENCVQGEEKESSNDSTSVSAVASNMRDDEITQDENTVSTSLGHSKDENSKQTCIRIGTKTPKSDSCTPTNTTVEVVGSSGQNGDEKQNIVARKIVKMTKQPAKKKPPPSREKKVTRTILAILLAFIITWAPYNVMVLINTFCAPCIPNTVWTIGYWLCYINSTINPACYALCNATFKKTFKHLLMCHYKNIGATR

M3 receptor = M3 receptor (Homo sapiens, UniProt P20309); details: selective effect on M receptor subtypes; cited from earlier work
[1] = Dynamic vapor sorption (DVS); format: physicochemical; details: at RH 80% humidity
Method: The dynamic vapor sorption and desorption analysis was performed on the IGA SORP (Hidenlsochema) instrument. The samples were tested in gradient mode. The test was performed in a humidity range of 0% to 90%, with an incremental humidity between each gradient of 10%. For each gradient, the shortest test time was 30 min, and the longest test time was 120 min. There is a time interval of 3 min for collecting data in the system.

[2] = Stability test in 40° C./75% RH chamber with XRPD detection; format: physicochemical; details: bottle sealed with filter paper, after 3 days
Method: The solid samples obtained were analyzed with an X-ray powder diffraction analyzer (Bruker D8 advance) equipped with a LynxEye detector. The samples was scanned with a 20 scanning angle from 3° to 40°, a scanning step of 0.02°, a tube voltage of 40 KV and a tube current of 40 mA. The sample pan used for sample measurement is a zero background sample pan.
The bottle was sealed with filter paper, and put into a 40° C./75% RH chamber for stability test. After 3 days, the sample was taken out for XRPD detection.
About 10 mg of Crystal B was weighed in an 8 mL sample bottle. The bottle was sealed with filter paper, and put into a 40° C./75% RH chamber for stability test. After 3 days, the sample was taken out for XRPD detection.

Sequence of M3 receptor (P20309 whole entry): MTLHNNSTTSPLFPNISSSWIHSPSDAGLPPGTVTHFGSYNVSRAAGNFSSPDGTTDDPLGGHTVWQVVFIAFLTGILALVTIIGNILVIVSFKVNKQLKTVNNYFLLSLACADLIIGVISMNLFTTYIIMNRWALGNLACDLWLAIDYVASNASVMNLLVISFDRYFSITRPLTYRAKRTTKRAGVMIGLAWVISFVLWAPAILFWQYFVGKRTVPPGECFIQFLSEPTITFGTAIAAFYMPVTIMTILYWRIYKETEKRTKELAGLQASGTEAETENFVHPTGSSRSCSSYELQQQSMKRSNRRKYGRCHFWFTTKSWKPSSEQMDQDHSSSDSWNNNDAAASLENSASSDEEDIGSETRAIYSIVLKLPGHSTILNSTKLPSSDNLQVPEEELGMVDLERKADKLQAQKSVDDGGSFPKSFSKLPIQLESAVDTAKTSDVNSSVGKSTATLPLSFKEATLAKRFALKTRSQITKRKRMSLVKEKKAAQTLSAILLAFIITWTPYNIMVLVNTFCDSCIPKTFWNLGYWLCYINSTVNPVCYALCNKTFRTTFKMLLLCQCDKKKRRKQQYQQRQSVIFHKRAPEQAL

| SMILES | effect on M2 receptor (M2 receptor) | effect on M3 receptor (M3 receptor) | hygroscopic weight increment [1] | crystal form change by XRPD detection after stability test [2] |
| --- | --- | --- | --- | --- |
| O[C@@](CO[C@H]1C[N+]2(CCCOc3ccccc3)CCC1CC2)(c1ccccc1)C1CCCC1.[Br-] [Compound I, (2R,3R)-3-[(2-cyclopentyl-2-hydroxy-2-phenyl)ethoxy]-1-(3-phenoxypropyl)-1-azabicyclo[2,2,2]octylonium bromide] | weak effect | strong effect |  |  |
| O[C@@](CO[C@H]1C[N+]2(CCCOc3ccccc3)CCC1CC2)(c1ccccc1)C1CCCC1.[Br-] [Crystal B] |  |  | 2.58% | did not change |
